For data set [1], the system named is Peyronie's patients. Put plainly: Clinical trial on 34 Peyronie's patients for 6 months, Polypodium versus Tamoxifen. Format: in vivo, human. As for the experimental part: (§1) The obtained results were statically significant.
(§2) The patients of Polypodium group were treated with 720 mg of Polypodium extract, orally, at 8-hourly intervals.
(§3) The patients of Tamoxifen group were treated with 20 mg of Tamoxifen, orally, at 24-hourly intervals.
The age was similar in both groups.
The plaque was assessed by physical examination and penis ecography.
Penis incurvation was assessed by photograph.

Another data set has as its system TGF-β. Put plainly: TGF-β production in Peyronie's patients post treatment. In kind it is in vivo, human. Particulars: compared with initial values, Tamoxifen group. As for the experimental part: as §1, §2, §3
A 22% post treatment decrease in TGF-β production was found in Polypodium group when compared with initial values, against 5% in Tamoxifen group.

The conditions of data set [2]: on administration; cited from earlier work.
A further data set concerns IL-10. Put plainly: IL-10 production in Peyronie's patients post treatment. Format: in vivo, human. Particulars: compared with initial values. As for the experimental part:
as §1, §2, §3
Also, a 17% post treatment decrease in IL-10 production in Polypodium group when compared with initial values, against 79% in Tamoxifen group.

For the next data set, the system named is Peyronie's disease. Particulars: comparative clinical study; cited from earlier work.
Data set [3] deals with Peyronie's patients. Particulars: 60 patients, 10 months; cited from earlier work.
A further data set has as its system TFG-β expression. Particulars: rats, Peyronie's disease by injection of TGF-β in penis; cited from earlier work.
Setting [4] is: 6 months, oral, assessed by photograph.
Where [5] appears, read: 6 months, oral, physical examination and penis ecography.

In the case of `CC/C(=C(\c1ccccc1)c1ccc(OCCN(C)C)cc1)c1ccccc1` [Tamoxifen], in the data set with Peyronie's patients [1] (6 months, oral), the “Coital difficulty, Improv, % of patients” value is reported as 40%; the “Coital difficulty, Improv, number of patients” value is 6; the “Coital difficulty, Same, % of patients” value came out at 20%; the “Coital difficulty, Same, number of patients” value is on record as 3. Also, in the data set on Peyronie's patients [1] (6 months, oral), the “Coital difficulty, Worse, % of patients” value is 40%; the “Coital difficulty, Worse, number of patients” value was determined as 6; the “Pain, Improv, % of patients” value is given as 66%; the “Pain, Improv, number of patients” value was determined as 10. Further, in the data set with Peyronie's patients [1] (6 months, oral), the “Pain, Same, % of patients” value is 33%; the “Pain, Same, number of patients” value was found to be 5; the “Pain, Worse, number of patients” value was determined as 0; the “Penis incurvation, Same, % of patients” value was determined as 33%. In addition, in the data set on Peyronie's patients [1] (6 months, oral), the “Penis incurvation, Same, number of patients” value came to 5; the “Penis incurvation, Worse, % of patients” value was 20%; the “Penis incurvation, Worse, number of patients” value is given as 3; the “Plaque, Same, % of patients” value is on record as 53%. In addition, in the data set on Peyronie's patients [1] (6 months, oral), the “Plaque, Same, number of patients” value is given as 8; the “Plaque, Worse, % of patients” value amounted to 20%; the “Plaque, Worse, number of patients” value is listed as 3. Besides, in the data set with Peyronie's patients [1] (setting [4]), the “Penis incurvation, Improv, % of patients” value came out at 46% and the “Penis incurvation, Improv, number of patients” value is reported as 7. Further, in the data set with Peyronie's patients [1] (setting [5]), the “Plaque, Improv, % of patients” value was found to be 27% and the “Plaque, Improv, number of patients” value is recorded as 4. The “patients of group satisfied after treatment” value in the data set on Peyronie's patients [1] (after treatment) is listed as 45%. In addition, the “post treatment decrease in TGF-β production” value in the data set with TGF-β is listed as 5%. For the same compound, the adverse effects result in data set [2] is “diminution of sexual desire and diminution of the eyaculate”. For the same compound, in the data set with IL-10, the “post treatment decrease in IL-10 production” value is listed as 79%. Also, in the data set with Peyronie's disease, the results versus placebo is given as “similar”.
As for `COc1cc2c(c(OC)c1OC)-c1ccc(OC)c(=O)cc1[C@@H](NC(C)=O)CC2` [colchicin], in the data set on Peyronie's patients [3], the “penis incurvature improved, % of patients” value is 30%; the “penis incurvature no change/unchanged, % of patients” value is 48%; the “penis incurvature worse/deteriorated, % of patients” value was 22%. Moreover, the “effect on TFG-β expression” value in the data set with TFG-β expression is listed as “reduces TFG-β expression”.

The record behind these values is patent US20060093690A1, “Novel therapeutic use of polypodium extracts” (Especialidades Farmaceuticas Centrum, S.A., priority 2002, published 2006).
